Test results reported in ChEMBL document CHEMBL6127076, “Scaffold hopping-driven optimization for the identification of NLRP3 inhibitors as potential gout therapeutics” (Eur J Med Chem, 2024).
Values after ≈ are worked out from the molar mass of the structure shown. Each block holds one molecule with its values, some of them ahead of it. Active and inactive are the calls of the source.

What was measured:
[1] = Inhibition of NLRP3 inflammasome pathway in human THP-1 cells assessed as inhibition of LPS/MSU-induced IL-1beta secretion
[2] = Plasma stability in human plasma assessed as compound remaining measured after 30 mins; assay type: ADME, cell-free; settings: read-out: Stability
Cytochrome P450 2C9 = Cytochrome P450 2C9 (Homo sapiens, UniProt P11712); assay: Inhibition of CYP2C9 (unknown origin); assay type: ADME
Cytochrome P450 1A2 = molecular target: T1, Cytochrome P450 1A2 (Homo sapiens, UniProt P05177); assay: Inhibition of CYP1A2 (unknown origin); assay type: ADME
T1 sequence (P05177 whole entry): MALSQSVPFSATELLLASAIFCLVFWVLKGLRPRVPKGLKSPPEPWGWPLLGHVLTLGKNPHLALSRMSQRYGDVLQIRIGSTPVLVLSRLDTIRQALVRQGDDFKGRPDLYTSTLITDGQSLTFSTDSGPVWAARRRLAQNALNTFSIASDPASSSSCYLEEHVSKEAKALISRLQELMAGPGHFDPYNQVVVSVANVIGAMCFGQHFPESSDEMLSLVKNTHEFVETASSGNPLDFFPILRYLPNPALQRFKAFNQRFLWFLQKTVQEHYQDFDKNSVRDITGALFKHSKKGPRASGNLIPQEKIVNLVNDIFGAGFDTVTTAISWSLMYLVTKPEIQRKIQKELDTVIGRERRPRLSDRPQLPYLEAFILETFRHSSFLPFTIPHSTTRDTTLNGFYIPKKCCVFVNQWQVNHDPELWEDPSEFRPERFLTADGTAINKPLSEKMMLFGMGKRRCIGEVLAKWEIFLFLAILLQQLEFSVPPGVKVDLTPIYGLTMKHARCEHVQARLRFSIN

[3] = Plasma stability in human plasma assessed as compound remaining measured after 120 mins; assay type: ADME, cell-free; settings: read-out: Stability
[4] = Plasma stability in human plasma assessed as compound remaining measured immediately; assay type: ADME, cell-free; settings: read-out: Stability
Cytochrome P450 3A4 [5] = molecular target: T2, Cytochrome P450 3A4 (Homo sapiens, UniProt P08684); assay: Inhibition of CYP3A4 (unknown origin) using midazolam as substrate; assay type: ADME
[6] = Plasma stability in human plasma assessed as compound remaining measured after 15 mins; assay type: ADME, cell-free; settings: read-out: Stability
[7] = Plasma stability in human plasma assessed as compound remaining measured after 60 mins; assay type: ADME, cell-free; settings: read-out: Stability
[8] = Plasma stability in human plasma assessed as compound remaining measured after 5 mins; assay type: ADME, cell-free; settings: read-out: Stability
Cytochrome P450 3A4 [9] = molecular target: T2, Cytochrome P450 3A4; assay: Inhibition of CYP3A4 (unknown origin) using testosterone as substrate; assay type: ADME
HEK-293T [10] = assay: Cytotoxicity against human HEK293T cells assessed as cell viability at 50 uM measured after 24 hrs by CCK8 assay; assay type: toxicity, cell-based
Cytochrome P450 2C19 = Cytochrome P450 2C19 (Homo sapiens, UniProt P33261); assay: Inhibition of CYP2C19 (unknown origin); assay type: ADME
Cytochrome P450 2D6 = Cytochrome P450 2D6 (Homo sapiens, UniProt P10635); assay: Inhibition of CYP2D6 (unknown origin); assay type: ADME
[11] = Aqueous solubility of the compound in pH 7.4 PBS buffer; assay type: physicochemical
[12] = Plasma stability in human plasma assessed as half life; assay type: ADME, cell-free
Mus musculus [13] = assay: Anti-inflammatory activity against MSU-induced peritonitis mouse model assessed as reduction in IL-1beta secretion in peritoneal cavity at 30 mg/kg, treated by gavage 30 mins before MSU induction measured after 6 hrs modeling by ELISA; assay type: functional, organism-based; settings: route po
HEK-293T [14] = assay: Cytotoxicity against human HEK293T cells assessed as cell viability at 0.39 to 50 uM measured after 24 hrs by CCK8 assay; assay type: toxicity, cell-based; settings: dose 0.39-50 µM
BMDM [15] = assay: Effect on NLPR3 expression in Nigericin-induced in C57BL/6J mouse BMDM cells at 3 to 30 uM by immunoblotting analysis; assay type: functional, cell-based; settings: dose 3-30 µM
Mus musculus [16] = assay: Anti-arthritis activity against MSU-induced arthritis mouse model assessed as decrease in von Frey pain threshold treated by gavage 30 mins before MSU induction measured for day 3 to day 7; assay type: functional, organism-based; settings: dose 5-30 mg/kg, route po, time 3-7 day
THP-1-M [17] = assay: Effect on mitochondrial damage in Nigericin-induced human THP-1-M cells by MitoTracker staining based confocal microscopic analysis; assay type: functional, cell-based
Mus musculus [18] = assay: Anti-inflammatory activity against MSU-induced peritonitis mouse model assessed as reduction in IL-1beta secretion in peritoneal cavity treated by gavage 30 mins before MSU induction measured after 6 hrs modeling by ELISA; assay type: functional, organism-based; settings: dose 5-30 mg/kg, route po
BMDM [19] = assay: Effect on ASC expression in Nigericin-induced in C57BL/6J mouse BMDM cells at 3 to 30 uM by immunoblotting analysis; assay type: functional, cell-based; settings: dose 3-30 µM
BMDM [20] = assay: Effect on pro-caspase 1 expression in Nigericin-induced in C57BL/6J mouse BMDM cells at 3 to 30 uM by immunoblotting analysis; assay type: functional, cell-based; settings: dose 3-30 µM
BMDM [21] = assay: Effect on pro-IL-1beta expression in Nigericin-induced in C57BL/6J mouse BMDM cells at 3 to 30 uM by immunoblotting analysis; assay type: functional, cell-based; settings: dose 3-30 µM
BMDM [22] = assay: Effect on NEK7 expression in Nigericin-induced in C57BL/6J mouse BMDM cells at 3 to 30 uM by immunoblotting analysis; assay type: functional, cell-based; settings: dose 3-30 µM
Mus musculus [23] = assay: Anti-arthritis activity against MSU-induced arthritis mouse model assessed as decrease in decrease in swelling in joint treated by gavage 30 mins before MSU induction measured for 7 days; assay type: functional, organism-based; settings: dose 5-30 mg/kg, route po, time 7.0 day
THP-1-M [24] = assay: Effect on ROS generation in Nigericin-induced human THP-1-M cells assessed as effect on increase in ROS generation by MitoSOX staining based confocal microscopic analysis; assay type: functional, cell-based

Sequence of Cytochrome P450 2C9 (P11712 whole entry): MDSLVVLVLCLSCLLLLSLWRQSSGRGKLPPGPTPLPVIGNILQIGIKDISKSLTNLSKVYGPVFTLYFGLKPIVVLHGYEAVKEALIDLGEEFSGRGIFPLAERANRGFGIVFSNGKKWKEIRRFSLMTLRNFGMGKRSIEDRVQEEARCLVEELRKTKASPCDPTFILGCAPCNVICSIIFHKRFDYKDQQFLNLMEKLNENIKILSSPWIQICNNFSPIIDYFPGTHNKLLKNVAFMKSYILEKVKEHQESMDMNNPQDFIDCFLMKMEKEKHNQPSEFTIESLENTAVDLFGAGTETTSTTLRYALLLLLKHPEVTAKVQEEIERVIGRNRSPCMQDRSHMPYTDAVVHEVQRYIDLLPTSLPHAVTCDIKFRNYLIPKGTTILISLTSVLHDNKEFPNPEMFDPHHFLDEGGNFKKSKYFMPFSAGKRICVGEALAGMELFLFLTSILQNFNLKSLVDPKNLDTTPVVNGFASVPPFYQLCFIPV
Sequence of Cytochrome P450 2D6 (P10635 whole entry): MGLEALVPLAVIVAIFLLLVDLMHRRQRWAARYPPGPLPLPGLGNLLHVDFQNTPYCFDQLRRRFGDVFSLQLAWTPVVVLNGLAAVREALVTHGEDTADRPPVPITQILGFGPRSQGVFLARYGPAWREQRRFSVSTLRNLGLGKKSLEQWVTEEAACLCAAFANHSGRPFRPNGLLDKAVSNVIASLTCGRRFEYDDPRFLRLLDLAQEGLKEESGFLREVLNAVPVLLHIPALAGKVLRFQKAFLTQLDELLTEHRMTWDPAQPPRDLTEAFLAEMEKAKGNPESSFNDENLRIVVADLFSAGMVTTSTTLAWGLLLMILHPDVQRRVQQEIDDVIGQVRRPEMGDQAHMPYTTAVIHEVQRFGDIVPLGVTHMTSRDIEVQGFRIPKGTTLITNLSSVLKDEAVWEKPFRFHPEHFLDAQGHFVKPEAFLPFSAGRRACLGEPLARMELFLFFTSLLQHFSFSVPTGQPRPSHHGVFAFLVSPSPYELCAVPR
T2 sequence (P08684 whole entry): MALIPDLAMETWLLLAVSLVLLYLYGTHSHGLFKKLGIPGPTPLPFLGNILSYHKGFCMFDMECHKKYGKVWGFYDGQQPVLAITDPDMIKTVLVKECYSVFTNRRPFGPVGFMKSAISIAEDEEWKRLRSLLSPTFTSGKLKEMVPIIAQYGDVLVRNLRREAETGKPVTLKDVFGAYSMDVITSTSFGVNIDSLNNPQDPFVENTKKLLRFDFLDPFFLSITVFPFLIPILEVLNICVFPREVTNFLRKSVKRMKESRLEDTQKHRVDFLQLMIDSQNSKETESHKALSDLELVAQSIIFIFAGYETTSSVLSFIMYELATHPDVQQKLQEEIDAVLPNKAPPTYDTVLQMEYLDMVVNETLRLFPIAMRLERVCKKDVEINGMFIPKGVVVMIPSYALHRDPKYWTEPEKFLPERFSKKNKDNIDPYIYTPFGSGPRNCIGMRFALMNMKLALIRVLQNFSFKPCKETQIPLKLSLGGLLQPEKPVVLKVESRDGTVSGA
Sequence of Cytochrome P450 2C19 (P33261 whole entry): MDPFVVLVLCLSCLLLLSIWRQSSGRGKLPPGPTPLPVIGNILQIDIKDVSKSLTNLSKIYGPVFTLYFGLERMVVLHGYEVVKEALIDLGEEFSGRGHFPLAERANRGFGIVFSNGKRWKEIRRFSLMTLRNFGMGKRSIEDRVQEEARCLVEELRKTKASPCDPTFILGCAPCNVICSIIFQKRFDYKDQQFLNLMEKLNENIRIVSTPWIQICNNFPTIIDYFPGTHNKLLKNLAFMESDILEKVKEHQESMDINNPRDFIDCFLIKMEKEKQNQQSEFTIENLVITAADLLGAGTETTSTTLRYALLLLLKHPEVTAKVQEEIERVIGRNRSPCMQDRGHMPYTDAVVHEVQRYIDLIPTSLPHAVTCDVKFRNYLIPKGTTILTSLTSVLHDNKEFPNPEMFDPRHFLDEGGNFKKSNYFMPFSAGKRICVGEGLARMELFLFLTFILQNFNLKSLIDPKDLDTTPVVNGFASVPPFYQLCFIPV

SMILES: COc1ccc(N2C(=O)C(C)(C)N(Cc3ccc(C)cc3)C2=S)cc1
IC50 [1]: > 20 µM

SMILES: COc1ccc(N2C(=O)C(C)(C)N(Cc3ccccc3C(F)(F)F)C2=S)cc1
IC50 [1]: 29.2 µM

SMILES: CC1(C)C(=O)N(c2cc(C(F)(F)F)cc(C(F)(F)F)c2)C(=S)N1Cc1ccc(S(N)(=O)=O)c(F)c1
remaining at 0.5 h [2]: 93.3% | IC50 (Cytochrome P450 2C9): 10.2 µM | IC50 (Cytochrome P450 1A2): > 100 µM | remaining at 2 h [3]: 91.8% | remaining at 0 min [4]: 100% | IC50 (Cytochrome P450 3A4 [5]): > 10 µM | remaining at 0.25 h [6]: 98.8% | remaining at 1 h [7]: 100% | remaining at 5 min [8]: 91.3% | IC50 (Cytochrome P450 3A4 [9]): > 10 µM | Activity (HEK-293T [10]): Toxic | IC50 [1]: 8.3 µM | IC50 (Cytochrome P450 2C19): > 10 µM | IC50 (Cytochrome P450 2D6): > 10 µM | solubility [11]: 14 µM (≈ 7.61 µg/mL)

SMILES: COc1ccc(N2C(=O)C(C)(C)N(Cc3ccc(C(F)(F)F)cc3)C2=S)cc1
IC50 [1]: 13 µM

SMILES: Cc1ccc(CN2C(=S)N(c3ccc(C#N)c(C(F)(F)F)c3)C(=O)C2(C)C)cc1C
IC50 [1]: > 20 µM

SMILES: CC(C)(C)c1ccc(N2C(=O)C(C)(C)N(Cc3ccc(C(=O)O)cc3)C2=S)cc1
IC50 [1]: > 20 µM

SMILES: C=C1C(=O)[C@]23[C@H](O)[C@H]1CC[C@H]2[C@@]12CO[C@]3(O)[C@@H](O)[C@@H]1C(C)(C)CC[C@@H]2O [ORIDONIN]
IC50 [1]: 1.9 µM

SMILES: Cc1ccc(CN2C(=S)N(c3cccc(OCc4ccccc4)c3)C(=O)C2(C)C)cc1C
IC50 [1]: > 20 µM

SMILES: CCCSc1ccc2nc(NC(=O)OC)[nH]c2c1 [ALBENDAZOLE]
solubility [11]: 1.65 µM (≈ 0.438 µg/mL)

SMILES: CC(C)(C)c1ccc(N2C(=O)C(C)(C)N(Cc3ccc(C#N)c(Cl)c3)C2=S)cc1
IC50 [1]: > 20 µM

Continued, in another order:

remaining at 0.5 h [2]: 102% | IC50 (Cytochrome P450 2C9): > 10 µM | IC50 (Cytochrome P450 1A2): > 100 µM | remaining at 2 h [3]: 93.6% | remaining at 0 min [4]: 100% | IC50 (Cytochrome P450 3A4 [5]): > 10 µM | remaining at 0.25 h [6]: 103% | remaining at 1 h [7]: 113% | remaining at 5 min [8]: 99.8% | IC50 (Cytochrome P450 3A4 [9]): > 10 µM | half-life [12]: 32.4 h | IC50 [1]: 4.3 µM | IC50 (Cytochrome P450 2C19): 5.64 µM | IC50 (Cytochrome P450 2D6): > 10 µM | solubility [11]: 0.089 µM (≈ 0.0351 µg/mL)
SMILES: Cc1ccc(CN2C(=S)N(c3ccc(C(C)(C)C)cc3)C(=O)C2(C)C)cc1C
Activity (HEK-293T [10]): Toxic

remaining at 0.5 h [2]: 104% | IC50 (Cytochrome P450 2C9): > 10 µM | IC50 (Cytochrome P450 1A2): > 100 µM | remaining at 2 h [3]: 96.9% | remaining at 0 min [4]: 100% | IC50 (Cytochrome P450 3A4 [5]): > 10 µM | remaining at 0.25 h [6]: 99.5% | remaining at 1 h [7]: 103% | remaining at 5 min [8]: 100% | IC50 (Cytochrome P450 3A4 [9]): > 10 µM | IC50 [1]: 4.8 µM | IC50 (Cytochrome P450 2C19): > 10 µM | IC50 (Cytochrome P450 2D6): > 10 µM | solubility [11]: 53.7 µM (≈ 25.5 µg/mL)
SMILES: CC1(C)C(=O)N(c2ccc(C(F)(F)F)cc2)C(=S)N1Cc1ccc(S(N)(=O)=O)c(F)c1
Activity (Mus musculus [13]): Active | Activity (HEK-293T [14]): Non-Toxic | Activity (BMDM [15]): inactive | Activity (Mus musculus [16]): Dose-Dependent Effect | Activity (THP-1-M [17]): inactive | Activity (Mus musculus [18]): Dose-Dependent Effect | Activity (BMDM [19]): inactive | Activity (BMDM [20]): inactive | Activity (BMDM [21]): inactive | Activity (BMDM [22]): inactive | Activity (Mus musculus [23]): Dose-Dependent Effect | Activity (THP-1-M [24]): inactive

remaining at 0.5 h [2]: 98.2% | IC50 (Cytochrome P450 2C9): > 10 µM | IC50 (Cytochrome P450 1A2): > 100 µM | remaining at 2 h [3]: 82.5% | remaining at 0 min [4]: 100% | IC50 (Cytochrome P450 3A4 [5]): > 10 µM | remaining at 0.25 h [6]: 89.8% | remaining at 1 h [7]: 100% | remaining at 5 min [8]: 96.7% | IC50 (Cytochrome P450 3A4 [9]): > 10 µM | half-life [12]: 10 h | IC50 [1]: 6.4 µM | IC50 (Cytochrome P450 2C19): > 10 µM | IC50 (Cytochrome P450 2D6): > 10 µM | solubility [11]: 19.3 µM (≈ 8.95 µg/mL)
SMILES: CC(C)(C)c1ccc(N2C(=O)C(C)(C)N(Cc3ccc(S(N)(=O)=O)c(F)c3)C2=S)cc1
Activity (HEK-293T [10]): Toxic

IC50 [1]: > 20 µM
SMILES: COc1cccc(N2C(=O)C(C)(C)N(Cc3ccc(C)c(C)c3)C2=S)c1

IC50 [1]: > 20 µM
SMILES: CC1(C)C(=O)N(c2cccnc2)C(=S)N1Cc1ccc(S(N)(=O)=O)c(F)c1
